# Where a SMILES comes first, the peptide text is derived from it. Where no end group is shown, it is not given here.
# Experiments:
# E. coli ATCC 25922 [1] = test: Broth microdilution assay (turbidity and CFU); type: cell-based, Escherichia coli; conditions: 100 µg/ml peptide, 2 hours at 37 °C, plated on agar (Fig. 2D)
# Method: To differentiate between microbistatic and microbicidal activity we performed a broth microdilution assay. For that, E. coli ATCC25922 bacteria were incubated overnight at 37 °C, 150 rpm. C. albicans ATCC 10231 was grown at 30 °C overnight, 150 rpm in liquid TSB. Cells were collected by centrifugation (2500 rpm, 10 min, 4 °C), washed twice and resuspended in 10 mM sodium phosphate buffer containing 1% (w/v) TSB broth. Required C. albicans cell density was adjusted using a hemocytometer. For bacteria the optical density of OD600nm = 0.1 was determined. Approximately 5 × 10^5 CFU/ml bacteria or fungi were mixed with indicated peptide concentrations (1.25–200 µg/ml) in a final volume of 100 µl in 10 mM sodium phosphate buffer containing 1% (w/v) TSB broth and incubated for 2 hours at 37 °C. After incubation 10 µl per well were plated on LB-/ or YPD-agar plates to determine the CFU/ml. After that 100 µl of 6% TSB (w/v) were added and absorbance was measured at 600 nm (Tecan, Switzerland) and monitored for 18 hours. Growth relative to the positive control in % was plotted against peptide concentration. Experiments were carried out at least three times; mean ± SEM is shown.
# C. albicans SC5314 = test: Model of oral candidiasis: RHOE infected with C. albicans; type: cell-based, Candida albicans; conditions: RHOE preincubated 1 h with 50 µg/ml peptide, infected with C. albicans for 24 h; for fungal load / invasion of the epithelium: histology (Fig. 5A)
# Method: Octapeptides were diluted to 50 µg/ml in PBS, or an equivalent volume of 0.01% acetic acid were applied to the apical side of the RHOEs and incubated for 1 h. C. albicans SC5314 was synchronized as described previously. Yeast cells were washed three times in PBS and 1 × 10^5 CFU were used for infection of pre-treated RHEs. After 24 h RHEs were fixed with Karnovsky’s fixative. Post-fixed samples (1% OsO4, 1 h) were rinsed with distilled water, block-stained with uranyl acetate (2% in distilled water), dehydrated in alcohol (stepwise 30–96%), immersed in propylene oxide and embedded in glycide ether (polymerized 48 h at 60 °C, Serva, Heidelberg). Semi-thin sections were stained with toluidine blue and examined with a Nikon Eclipse 80i light microscope (magnification 1:400). Afterwards, fungal cells were simply coloured in red.
# [2] = tested on: Bifidobacterium adolescentis; test: Radial diffusion assay; type: cell-based; conditions: 10 mM sodium phosphate, 1 or 4 µg peptide per well, at least three experiments (Fig. 1D)
# Method: (§1) Antimicrobial radial diffusion assay was modified from reference[17] and performed as described earlier. Briefly, microorganisms were cultivated (anaerobic bacteria with AnaeroGen, Oxoid, UK) for up to 18 hours in liquid TSB medium. Log-phase cultures were washed and diluted to 4 × 10^6 colony forming units in 10 ml agar. Incubation was carried out in 10 ml of 10 mM sodium phosphate, either pH 7.4 or 5.7, containing 0.3 mg/ml of TSB powder and 1% (w/v) low EEO-agarose (AppliChem) with 0 or 1 mM dithiothreitol (DTT, Sigma-Aldrich) under anaerobic or aerobic conditions for three hours. 1 or 4 µg of synthetic, oxidized hBD-1 (Peptide Institute, Japan) and 1 or 4 µg of synthetic peptides (EMC Microcollections, Tuebingen) were filled into small punched wells in a final volume of 4 µl. This concentrated peptide solution dilutes while diffusing into the gel, thereby generating concentration-dependent, round-shaped inhibition zones when killing immobilized microorganisms.
# (§2) An overlay-gel containing 6% (w/v) TSB powder, 1% agarose and 10 mM sodium phosphate buffer without DTT was poured onto the plates and after incubation for up to 48 h at 37 °C the diameter of inhibition zones was measured. Experiments were repeated at least three times; mean + SEM is shown.
# Bifidobacterium breve = test: Radial diffusion assay; type: cell-based; conditions: 1 or 4 µg peptide per well (Fig. 1D)
# Method: as §1, §2
# Candida albicans = test: Radial diffusion assay; type: cell-based; conditions: for antimicrobial activity against C. albicans (diameter of inhibition zones): 4 µg peptide, variants compared with RGKAKCCK (Fig. 1E,F, Fig. 2A)
# Method: as §1, §2
# Escherichia coli = test: Radial diffusion assay; type: cell-based; conditions: for antimicrobial activity against E. coli (diameter of inhibition zones): 4 µg peptide, variants compared with RGKAKCCK (Fig. 1E,F, Fig. 2A)
# Method: as §1, §2
# Pseudomonas aeruginosa = test: Radial diffusion assay; type: cell-based; conditions: P. aeruginosa ATCC type strain (Figs 1D, 2A)
# Method: as §1, §2
# [3] = tested on: Streptococcus salivarius ssp. thermophilus; test: Radial diffusion assay; type: cell-based; conditions: 1 or 4 µg peptide per well, at least three experiments (Fig. 1D)
# Method: as §1, §2
# [4] = tested on: selected commensal and pathogenic microorganisms; test: Radial diffusion assay, semi-quantitative evaluation on a molar base; type: cell-based; conditions: 4 µg reduced hBD-1 equivalent to 254 µM, 1 µg octapeptide equivalent to 280 µM in the RDA
# Method: as §1, §2
# [5] = tested on: antibiotic-resistant bacteria; test: Radial diffusion assay, drug-resistant clinical isolates overall; type: cell-based; conditions: 4 µg peptide, direct comparison of the four peptides (Fig. 2B)
# Method: as §1, §2
# E. coli ATCC 25922 [6] = test: Flow cytometric assay, propidium iodide uptake; type: cell-based, Escherichia coli; conditions: 100 µg/ml peptide, 1 h, flow cytometry, at least three experiments (Fig. 3A)
# Method: (§3) Approximately 1.5 × 10^6 CFU log-phase bacteria or overnight cultured C. albicans ATCC 10231 were used in a final volume of 100 µl TSB (1:6 diluted H2O). We added peptides in concentrations 50 and 100 µg/ml in a final volume of 10 µl and incubated theses suspensions for 1 h at 37 °C. Subsequently 2 µl of membrane potential sensitive dye DiBAC4(3) [bis-[1,3-dibutylbarituric acid)trimethine oxonol] (Thermo Scientific, USA) (50 µg/ml) or Propidium Iodide (Thermo Scientific, USA) (50 µg/ml) were added and incubated for 10 min at room temperature. Then samples were centrifuged (5 min, 7000 rpm, RT) and re-suspended in 300 µl PBS. The percentage of fluorescent positive cells was determined using Canto II flow cytometer (BD Bioscience) with DIVA software (BD Bioscience) as described earlier. Experiments were repeated at least three times and mean +/− SEM is shown.
# C. albicans ATCC 10231 = test: Flow cytometric assay, propidium iodide uptake; type: cell-based, Candida albicans; conditions: 100 µg/ml peptide, 1 h, flow cytometry (Fig. 3A)
# Method: as §3
# pepsin = test: Protease digestion with pepsin, fragments analysed by MALDI-MS; type: in vitro ADME; conditions: 2 µg peptide, protease:peptide 1:20, HCl-acidified water pH 3, 90 min
# Method: (§4) 2 µg of oxidized or reduced hBD-1 were digested with pepsin or chymotrypsin at a protease: peptide ratio of 1:20 in HCl-acidified water, pH 3 (pepsin) or 10 mM sodium phosphate, pH 7.4 (chymotrypsin) for 90 min. Human duodenal secretion (pH 6.5–7) was taken during a routine gastroscopy by rinsing the duodenum with saline. Oxidized and reduced hBD-1 were incubated with human duodenal secretion for 30 min at 37 °C. As a control both peptides were incubated with 0.9% NaCl. Peptides were enriched with ZipTip (Millipore), co-crystallized with a-cyano-4-hydroxy cinnamic acid and analyzed with an ultraflex TOF/TOF machine (Bruker, Germany).
# chymotrypsin = test: Protease digestion with chymotrypsin, fragments analysed by MALDI-MS; type: in vitro ADME; conditions: 2 µg peptide, protease:peptide 1:20, 10 mM sodium phosphate pH 7.4, 90 min
# Method: as §4
# [7] = type: in vitro ADME, human; conditions: pH 6.5
# Method: as §4
# trypsin = conditions: cited from earlier work
# Source text: Due to their ancient evolutionary origin and the strong demand for novel antimicrobial strategies, AMPs have been considered as potential antibiotic drug candidates. Mainly because they target “Achilles heels” of microorganisms, only few resistance mechanisms have been evolved over long time[14],[15]. Still, large-scale chemical synthesis of defensins containing three native disulphide-bridges has been a challenge and rendered the production expensive. Accordingly, the production of smaller, but yet antibiotic, fragments of defensins without disulphide bridges is a promising option. We have sh ...
# [8] = 1 or 4 µg peptide per well, at least three experiments (Fig. 1D)
molecule,measurement,setting,value
CC(=O)N[C@@H](CCCNC(=N)N)C(=O)NCC(=O)N[C@@H](CCCCN)C(=O)N[C@@H](C)C(=O)N[C@@H](CCCCN)C(=O)N[C@@H](CS)C(=O)N[C@@H](CS)C(=O)N[C@@H](CCCCN)C(N)=O [Ac-RGKAKCCK-NH2] (Ac-RGKAKCCK-NH2),decrease in CFU of E. coli compared to untreated controls,E. coli ATCC 25922 [1],more than 100 fold
same,fungal load / invasion of the epithelium,C. albicans SC5314,invaded the whole epithelium
C[C@H](NC(=O)[C@H](CCCCN)NC(=O)CNC(=O)[C@@H](N)CCCNC(=N)N)C(=O)N[C@@H](CCCCN)C(=O)N[C@@H](CS)C(=O)N[C@@H](CS)C(=O)N[C@@H](CCCCN)C(=O)O [RGKAKCCK] (H-RGKAKCCK-OH),antimicrobial activity (diameter of inhibition zones),[2],convincing activity
same,antimicrobial activity (inhibition zones),Bifidobacterium breve,no inhibition zones
same,antimicrobial activity (diameter of inhibition zones),Candida albicans; [8],convincing activity
same,antimicrobial activity (diameter of inhibition zones),Escherichia coli; [8],convincing activity
same,antimicrobial activity (diameter of inhibition zones),Pseudomonas aeruginosa,neglectable antibiotic activity
same,antimicrobial activity (diameter of inhibition zones),[3],convincing activity
same,activity on a molar base compared with the full length-peptide,[4],less potent
same,spectrum against the tested antibiotic-resistant bacteria,[5],inhibited growth of the most tested antibiotic-resistant bacteria
same,decrease in CFU of E. coli compared to untreated controls,E. coli ATCC 25922 [1],more than 100 fold
same,PI uptake / bacterial killing (cell death) of E. coli,E. coli ATCC 25922 [6],~100%
same,PI uptake of C. albicans,C. albicans ATCC 10231,up to 60%
same,epithelial damage,C. albicans SC5314; blinded scale 0 to 5 (Fig. 5B),ameliorated epithelial damage
same,fungal load / invasion of the epithelium,C. albicans SC5314,convincingly reduced the fungal load
AGAAKCCK [variant lacking Arg1 and Lys3],antimicrobial activity against C. albicans (diameter of inhibition zones),Candida albicans,completely inactive
same,antimicrobial activity against E. coli (diameter of inhibition zones),Escherichia coli,completely inactive
AGKAKCCK [variant lacking Arg1],antimicrobial activity against C. albicans (diameter of inhibition zones),Candida albicans,completely inactive
same,antimicrobial activity against E. coli (diameter of inhibition zones),Escherichia coli,completely inactive
"DHYNCVSSGGQCLYSACPIFTKIQGTCYRGKAKCCK (disulfide (positions not given here)) [oxidized hBD-1, host-defense peptide human beta-defensin 1 with three disulphide bridges]",proteolytic susceptibility towards pepsin,pepsin,protease resistant
same,proteolytic susceptibility towards chymotrypsin,chymotrypsin,protease resistant
same,antimicrobial activity (inhibition zones),Bifidobacterium breve,no inhibition zones
"DHYNCVSSGGQCLYSACPIFTKIQGTCYRGKAKCCK [reduced hBD-1, hBD-1 after reduction of its three disulphide bridges, a linear peptide]",digestion by human duodenal secretion (generation of fragment m/z 893.5),[7],generated a fragment having an m/z of 893.5
same,antimicrobial activity (inhibition zones),Bifidobacterium breve,inhibited its growth
same,degradation by the intestinal protease trypsin,trypsin,can be degraded
RGKAKAAK [octapeptide with both cysteines replaced],antimicrobial activity against C. albicans (diameter of inhibition zones),Candida albicans,completely abolished activity
same,antimicrobial activity against E. coli (diameter of inhibition zones),Escherichia coli,completely abolished activity
RGKAKACK [octapeptide with Cys6 replaced by alanine],antimicrobial activity against C. albicans (diameter of inhibition zones),Candida albicans,strongly decreased activity
same,antimicrobial activity against E. coli (diameter of inhibition zones),Escherichia coli,increased
RGKAKCAK [octapeptide with Cys7 replaced by alanine],antimicrobial activity against C. albicans (diameter of inhibition zones),Candida albicans,strongly decreased activity
same,antimicrobial activity against E. coli (diameter of inhibition zones),Escherichia coli,increased

# From publication PMC6403363, “Proteolytic Degradation of reduced Human Beta Defensin 1 generates a Novel Antibiotic Octapeptide” (Scientific Reports, 2019)
